Laboratory results from patent publication US20230136297A1, “Methods Of Treating Fabry Disease In Patients Having A Mutation In The GLA Gene” (Amicus Therapeutics, Inc., priority 2020, published 2023).
Changes are numbered by the printed parent chain.

Experiments:
α-Gal A mutant form A29D = assay: α-Gal A activity in lysates of transfected HEK-293 cells ± migalastat (HEK assay); type: cell-based, human
Source text: (§1) Such mutations or variants are also referred to herein as “HEK assay amenable” mutations or variants.
(§2) The α-Gal A activity is expressed as the nmoles of free 4-MU released per milligram of protein per hour (nmol/mg/hr).

α-Gal A mutant form Y88C = molecular target: T1, α-Gal A mutant form Y88C (Homo sapiens, UniProt P06280, Y88C); assay: as above; type: cell-based
T1 construct: expressed in transfected cells; host or cells: HEK-293
T1 sequence (P06280 32-429 Y88C): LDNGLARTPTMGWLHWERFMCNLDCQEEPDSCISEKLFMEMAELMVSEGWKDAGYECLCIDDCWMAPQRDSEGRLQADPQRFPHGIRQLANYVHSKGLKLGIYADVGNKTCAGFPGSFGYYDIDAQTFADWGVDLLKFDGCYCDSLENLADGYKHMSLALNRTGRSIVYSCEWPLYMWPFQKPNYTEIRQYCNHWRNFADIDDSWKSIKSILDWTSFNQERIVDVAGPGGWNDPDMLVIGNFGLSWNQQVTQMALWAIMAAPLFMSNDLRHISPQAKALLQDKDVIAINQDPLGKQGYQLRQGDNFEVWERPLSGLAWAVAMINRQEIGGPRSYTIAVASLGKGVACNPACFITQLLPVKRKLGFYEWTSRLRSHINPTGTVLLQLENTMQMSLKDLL
Source text: as §1, §2

α-Gal A mutant form N53Y = molecular target: T2, α-Gal A mutant form N53Y (Homo sapiens, UniProt P06280, N53Y); assay: as above; type: cell-based
T2 construct: expressed in transfected cells; host or cells: HEK-293
T2 sequence (P06280 32-429 N53Y): T1 sequence (P06280 32-429 Y88C) with N22Y, C57Y
Source text: as §1, §2

[1] = molecular target: T3, α-Gal A mutant form Y152N (Homo sapiens, UniProt P06280, Y152N); assay: as above; type: cell-based
T3 construct: expressed in transfected cells; host or cells: HEK-293
T3 sequence (P06280 32-429 Y152N): T1 sequence (P06280 32-429 Y88C) with C57Y, Y121N
Source text: as §1, §2

[2] = molecular target: T4, α-Gal A mutant form D165N (Homo sapiens, UniProt P06280, D165N); assay: as above; type: cell-based
T4 construct: expressed in transfected cells; host or cells: HEK-293
T4 sequence (P06280 32-429 D165N): T1 sequence (P06280 32-429 Y88C) with C57Y, D134N
Source text: as §1, §2

[3] = molecular target: T5, α-Gal A mutant form P259S (Homo sapiens, UniProt P06280, P259S); assay: as above; type: cell-based
T5 construct: expressed in transfected cells; host or cells: HEK-293
T5 sequence (P06280 32-429 P259S): T1 sequence (P06280 32-429 Y88C) with C57Y, P228S
Source text: as §1, §2

[4] = tested on: novel α-Gal A mutations A29D, R38S, N53Y, Y88C, V124G, I133F, A143V, Y152N, F159C, A160D, D165N, F169I, L180V, D182G, R196T, W209R, A257T, P259S, G271A, S276T …; assay: HEK assay, amenability of the novel mutations taken together; type: cell-based, human; conditions: all 31 novel mutations; criteria: relative increase ≥1.20-fold and absolute increase ≥3.0% wild-type at 10 μM migalastat
Source text: as §1, §2

[5] = 10 μM migalastat minus baseline
[6] = HEK-293 lysates, 10 μM migalastat 5 days, mean ± SEM

Absolute increase (% WT) (α-Gal A mutant form Y88C; [5]): 9.9 % WT
Relative increase (α-Gal A mutant form Y88C; 10 μM migalastat ÷ baseline): 3.38
10 μM migalastat α-Gal A activity (α-Gal A mutant form Y88C; [6]): 5459 ± 307 nmol/mg/h
10 μM migalastat α-Gal A activity (% WT) (α-Gal A mutant form Y88C; [6]): 14 ± 1.1 % WT
Absolute increase (% WT) (α-Gal A mutant form N53Y; [5]): 34.5 % WT
Relative increase (α-Gal A mutant form N53Y; 10 μM migalastat ÷ baseline): 2.04
10 μM migalastat α-Gal A activity (α-Gal A mutant form N53Y; [6]): 22871 ± 2192 nmol/mg/h
10 μM migalastat α-Gal A activity (% WT) (α-Gal A mutant form N53Y; [6]): 68.5 ± 2.6 % WT
Absolute increase (% WT) [1, 5]: 25.9 % WT
Relative increase ([1]; 10 μM migalastat ÷ baseline): 1.97
10 μM migalastat α-Gal A activity [1, 6]: 18554 ± 1297 nmol/mg/h
10 μM migalastat α-Gal A activity (% WT) [1, 6]: 51.6 ± 2.2 % WT
Absolute increase (% WT) [2, 5]: 34 % WT
Relative increase ([2]; 10 μM migalastat ÷ baseline): 6.86
10 μM migalastat α-Gal A activity [2, 6]: 10562 ± 1017 nmol/mg/h
10 μM migalastat α-Gal A activity (% WT) [2, 6]: 40 ± 2.7 % WT
Absolute increase (% WT) [3, 5]: 35.5 % WT
Relative increase ([3]; 10 μM migalastat ÷ baseline): 1.86
10 μM migalastat α-Gal A activity [3, 6]: 28621 ± 3141 nmol/mg/h
10 μM migalastat α-Gal A activity (% WT) [3, 6]: 79.8 ± 4.8 % WT
Compound: OC[C@H]1NC[C@H](O)[C@@H](O)[C@H]1O [migalastat, (2R,3S,4R,5S)-2-(hydroxymethyl) piperdine-3,4,5-triol]
Absolute increase (% WT) (α-Gal A mutant form A29D; [5]): 5.1 % WT
Relative increase (α-Gal A mutant form A29D; 10 μM migalastat ÷ baseline): 1.35
10 μM migalastat α-Gal A activity (α-Gal A mutant form A29D; [6]): 6877 ± 474 nmol/mg/h
10 μM migalastat α-Gal A activity (% WT) (α-Gal A mutant form A29D; [6]): 20.3 ± 1.1 % WT
in vitro response to incubation with migalastat [4]: met amenability criteria
